Measurements reported in patent US11858959B2, “Glycyrrhetinic acid derivatives for use in treating hyperkalemia” (ARDELYX, INC., priority 2019, dated 2024).

Each compound was assayed against HSD2 (Homo sapiens (Human), UniProt P80365) (assay: HSD2 activity: cortisol level (HTRF) in human descending colon organoid-derived monolayer cultures). Conditions: not given.
HSD2, sequence (P80365 whole entry): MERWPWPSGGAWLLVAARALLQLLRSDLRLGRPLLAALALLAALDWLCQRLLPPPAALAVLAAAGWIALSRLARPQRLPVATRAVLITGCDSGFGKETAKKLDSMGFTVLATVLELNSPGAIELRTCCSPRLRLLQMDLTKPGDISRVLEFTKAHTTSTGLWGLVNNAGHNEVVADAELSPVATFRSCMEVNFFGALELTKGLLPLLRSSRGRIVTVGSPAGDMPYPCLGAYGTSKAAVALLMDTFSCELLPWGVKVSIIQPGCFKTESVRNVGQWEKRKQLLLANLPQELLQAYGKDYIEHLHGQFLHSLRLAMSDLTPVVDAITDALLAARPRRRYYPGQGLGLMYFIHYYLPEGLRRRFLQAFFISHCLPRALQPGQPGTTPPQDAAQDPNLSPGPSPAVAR
With `C[C@]1(C(=O)O)CC[C@]2(C)CC[C@]3(C)C(=CC(=O)[C@@H]4[C@@]5(C)CC[C@H](OC(=O)NCCN6CCOCC6)[C@@](C)(C(=O)O)[C@@H]5CC[C@]43C)[C@@H]2C1` [(2S,4aS,6aS,6bR,8aR,9S,10S,12aS,12bR,14bR)-2,4a,6a,6b,9,12a-hexamethyl-10-({[2-(morpholin-4-yl)ethyl]carbamoyl}oxy)-13-oxo-1,2,3,4,4a,5,6,6a,6b,7,8,8a,9,10,11,12,12a,12b,13,14b-icosahydropicene-2,9-dicarboxylic acid] the IC50 was > 10 µM. In the case of `CCC(=O)O[C@H]1CC[C@]2(C)[C@H]3C(=O)C=C4[C@@H]5C[C@@](C)(C(=O)O)CC[C@]5(C)CC[C@@]4(C)[C@]3(C)CC[C@H]2[C@]1(C)N` [(2S,4aS,6aS,6bR,8aR,9S,10S,12aS,12bR,14bR)-9-amino-2,4a,6a,6b,9,12a-hexamethyl-13-oxo-10-(propanoyloxy)-1,2,3,4,4a,5,6,6a,6b,7,8,8a,9,10,11,12,12a,12b,13,14b-icosahydropicene-2-carboxylic acid], the IC50 is reported as 0.398 µM. For `C[C@]1(C(=O)O)CC[C@]2(C)CC[C@]3(C)C(=CC(=O)[C@@H]4[C@@]5(C)CC[C@H](O)[C@@](C)(N)[C@@H]5CC[C@]43C)[C@@H]2C1` [(2S,4aS,6aS,6bR,8aR,9S,10S,12aS,12bR,14bR)-9-amino-10-hydroxy-2,4a,6a,6b,9,12a-hexamethyl-13-oxo-1,2,3,4,4a,5,6,6a,6b,7,8,8a,9,10,11,12,12a,12b,13,14b-icosahydropicene-2-carboxylic acid], the IC50 was > 10 µM. With `C[C@]1(C(=O)O)CC[C@]2(C)CC[C@]3(C)C(=CC(=O)[C@@H]4[C@@]5(C)CC[C@H](OC(=O)CS(C)(=O)=O)[C@@](C)(C(=O)O)[C@@H]5CC[C@]43C)[C@@H]2C1` [(2S,4aS,6aS,6bR,8aR,9S,10S,12aS,12bR,14bR)-10-[(2-methanesulfonylacetyl)oxy]-2,4a,6a,6b,9,12a-hexamethyl-13-oxo-1,2,3,4,4a,5,6,6a,6b,7,8,8a,9,10,11,12,12a,12b,13,14b-icosahydropicene-2,9-dicarboxylic acid] the IC50 was > 10 µM. For `COCC(=O)O[C@H]1CC[C@@]2(C)[C@@H](CC[C@]3(C)[C@@H]2C(=O)C=C2[C@@H]4C[C@@](C)(C(=O)O)CC[C@]4(C)CC[C@]23C)[C@]1(C)C(=O)O` [(2S,4aS,6aS,6bR,8aR,9S,10S,12aS,12bR,14bR)-10-[(2-methoxyacetyl)oxy]-2,4a,6a,6b,9,12a-hexamethyl-13-oxo-1,2,3,4,4a,5,6,6a,6b,7,8,8a,9,10,11,12,12a,12b,13,14b-icosahydropicene-2,9-dicarboxylic acid], the IC50 was > 10 µM. In the case of `COC(=O)N[C@H]1CC[C@@]2(C)[C@@H](CC[C@]3(C)[C@@H]2C(=O)C=C2[C@@H]4C[C@@](C)(C(=O)O)CC[C@]4(C)CC[C@]23C)[C@]1(C)C(=O)O` [(2S,4aS,6aS,6bR,8aR,9S,10S,12aS,12bR,14bR)-10-[(methoxycarbonyl)amino]-2,4a,6a,6b,9,12a-hexamethyl-13-oxo-1,2,3,4,4a,5,6,6a,6b,7,8,8a,9,10,11,12,12a,12b,13,14b-icosahydropicene-2,9-dicarboxylic acid], the IC50 is reported as > 10 µM. `CN(C)CC(=O)O[C@H]1CC[C@@]2(C)[C@@H](CC[C@]3(C)[C@@H]2C(=O)C=C2[C@@H]4C[C@@](C)(C(=O)O)CC[C@]4(C)CC[C@]23C)[C@]1(C)C(=O)O` [(2S,4aS,6aS,6bR,8aR,9S,10S,12aS,12bR,14bR)-10-{[2-(dimethylamino)acetyl]oxy}-2,4a,6a,6b,9,12a-hexamethyl-13-oxo-1,2,3,4,4a,5,6,6a,6b,7,8,8a,9,10,11,12,12a,12b,13,14b-icosahydropicene-2,9-dicarboxylic acid] was tested, and the IC50 was > 10 µM. With `C[C@]1(C(=O)O)CC[C@]2(C)CC[C@]3(C)C(=CC(=O)[C@@H]4[C@@]5(C)CC[C@H](O)[C@@](C)(COCC(=O)O)C5CC[C@]43C)[C@@H]2C1` (stereo partly drawn) [(2S,4aS,6aS,6bR,9R,10S,12aS,12bR,14bR)-9-[(carboxymethoxy)methyl]-10-hydroxy-2,4a,6a,6b,9,12a-hexamethyl-13-oxo-1,2,3,4,4a,5,6,6a,6b,7,8,8a,9,10,11,12,12a,12b,13,14b-icosahydropicene-2-carboxylic acid] the IC50 was > 10 µM. For `COCO[C@H]1CC[C@@]2(C)[C@@H](CC[C@]3(C)[C@@H]2C(=O)C=C2[C@@H]4C[C@@](C)(C(=O)O)CC[C@]4(C)CC[C@]23C)[C@]1(C)C(=O)OCc1oc(=O)oc1C(C)C` [Compound 258-2, (2S,4aS,6aS,6bR,8aR,9S,10S,12aS,12bR,14bR)-9-(((5-Isopropyl-2-oxo-1,3-dioxol-4-yl)methoxy)carbonyl)-10-(methoxymethoxy)-2,4a,6a,6b,9,12a-hexamethyl-13-oxo-1,2,3,4,4a,5,6,6a,6b,7,8,8a,9,10,11,12,12a,12b,13,14b-icosahydropicene-2-carboxylic Acid], the IC50 was 0.126 µM. `CCC(=O)O[C@H]1CC[C@@]2(C)[C@@H](CC[C@]3(C)[C@@H]2C(=O)C=C2[C@@H]4C[C@@](C)(C(=O)O)CC[C@]4(C)CC[C@]23C)[C@]1(C)NC(=O)OCc1oc(=O)oc1CC` [Compound 318-1, (2S,4aS,6aS,6bR,8aR,9S,10S,12aS,12bR,14bR)-9-((((5-ethyl-2-oxo-1,3-dioxol-4-yl)methoxy)carbonyl)amino)-2,4a,6a,6b,9,12a-hexamethyl-13-oxo-10-(propionyloxy)-1,2,3,4,4a,5,6,6a,6b,7,8,8a,9,10,11,12,12a,12b,13,14b-icosahydropicene-2-carboxylic Acid] showed an IC50 of 0.0355 µM.

Same assay, conditions: HSD2 inhibition in human descending colon cultures; 30 min pre-incubation, then 40 nM cortisol for four hours; cortisol HTRF
“2-(3-((1-PEG5K-1H-1,2,3-triazol-4-yl)methoxy)-4-nitrobenzyl) 9-((5-methyl-2-oxo-1,3-dioxol-4-yl)methyl)(2S,4aS,6aS,6bR,8aR,9S,10S,12aS,12bR,14bR)-10-((2,5,8,11-tetraoxatetradecan-14-oyl)oxy)-2,4a,6a,6b,9,12a-hexamethyl-13-oxo-1,2,3,4,4a,5,6,6a,6b,7,8,8a,9,10,11,12,12a,12b,13,14b-icosahydropicene-2,9-dicarboxylate [Compound 605-2]” gave a pIC50 of 6.9.
